Literature values, collected in patent publication US20260356814A1, “INDOLINE DERIVATIVES AS SEROTONERGIC AGENTS USEFUL FOR THE TREATMENT OF DISORDERS RELATED THERETO” (MINDSET PHARMA INC., priority 2022, published 2026).
Read-outs that look alike come from different tables or passages of the source.

Assays:
[1] = system: depression and anxiety associated with life-threatening disease; settings: in a supportive setting; cited from earlier work
tobacco use disorder = settings: cited from earlier work
[2] = system: absolute metabolic rate of glucose in frontal and other cortical regions, striatal and limbic subcortical structures; settings: 15 or 20 mg orally, healthy participants; cited from earlier work
[3] = controlled setting; cited from earlier work
[4] = system: brain's default mode network; settings: intravenously administered; cited from earlier work
human 5-HT2A receptor = human 5-HT2A receptor (Homo sapiens, UniProt P28223); settings: cited from earlier work
Chain of human 5-HT2A receptor (P28223 whole entry): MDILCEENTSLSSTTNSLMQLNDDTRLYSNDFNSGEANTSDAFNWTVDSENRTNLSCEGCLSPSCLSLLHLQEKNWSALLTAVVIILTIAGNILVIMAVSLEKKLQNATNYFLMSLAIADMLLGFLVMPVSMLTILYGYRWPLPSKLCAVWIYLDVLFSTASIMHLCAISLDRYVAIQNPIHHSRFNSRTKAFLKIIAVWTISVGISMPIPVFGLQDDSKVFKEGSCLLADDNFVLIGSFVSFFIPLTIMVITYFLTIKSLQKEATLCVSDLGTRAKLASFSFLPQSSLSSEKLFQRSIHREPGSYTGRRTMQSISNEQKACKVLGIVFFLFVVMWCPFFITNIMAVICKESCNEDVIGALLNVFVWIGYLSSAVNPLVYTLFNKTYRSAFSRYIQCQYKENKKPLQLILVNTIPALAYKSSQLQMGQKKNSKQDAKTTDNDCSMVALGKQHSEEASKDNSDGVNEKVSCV

[5] = target: 5-HT2A and 5-HT2C receptors; settings: compared with LSD; cited from earlier work
5-HT2 receptor = settings: daily administration; cited from earlier work
[6] = system: subpopulations of low attentive and low motivated rats; settings: rat, in vivo; cited from earlier work

CN(C)CCc1c[nH]c2cccc(OP(=O)(O)O)c12 [Psilocybin, 4-phosphoryloxy-N,N-dimethyltrypatmine]
anti-depressant and anxiolytic effects [1]: significant and sustained anti-depressant and anxiolytic effects | abstinence rate (tobacco use disorder; 12 months follow-up): 67% | abstinence rate (tobacco use disorder; six months follow-up): 80% | absolute metabolic rate of glucose [2]: increased absolute metabolic rate of glucose in frontal, and to a lesser extent in other, cortical regions as well as in striatal and limbic subcortical structures | headache [3]: transient, delayed headache, with incidence, duration, and severity increased in a dose-related manner | oscillatory power in areas of the brain's default mode network [4]: decreases in oscillatory power in areas of the brain's default mode network | affinity for 5-HT2A, human versus rat receptor (human 5-HT2A receptor): stronger affinity for the human 5-HT2A receptor than for the rat receptor | K (i) for 5-HT2A and 5-HT2C relative to LSD [5]: lower K (i) for both 5-HT2A and 5-HT2C receptors than LSD | 5-HT2 receptor density in rat brain (5-HT2 receptor): reduce 5-HT2 receptor density in rat brain | performance on 5 choice serial reaction time and progressive ratio tasks [6]: improved performance on 5 choice serial reaction time and progressive ratio tasks
